Holding throughout (format): cell-based
Assay [1] concerns FOXM1^A2 mRNA and FOXM1^BC mRNA. Nature of the assay: Splicing assay (FOXM1), qPCR of isoform mRNAs. The following applies: for pIC50: 24 hours, table does not say EC50 or IC50, read-out: FOXM1; for IC50: FoxM1 BC mRNA decrease (exon included), read-out: Splice IC50 (nM) FoxM1 BC mRNA decrease (exon included); for EC50: read-out: Splice EC50 (nM) FoxM1 A mRNA increase (exon excluded). The method, boiled down:
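RT-qPCR read-out after 24 h compound exposure at 37° C., 0.2% DMSO, top dose 10 μM with 4-fold 8-point dilutions, 20,000 cells per well. Copy numbers from plasmid standard curves, PPIA-normalized, expressed as isoform ratio relative to DMSO.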

A further assay has as its system SMN2^FL mRNA. Nature of the assay: SMN2 splicing assay, real-time quantitative PCR, SMA type I patient cells (GM03813). The following applies: Homo sapiens, 24 hours. The protocol: (§1) Various cells lines were treated with the SMSMs described herein. RNA was then isolated, cDNA synthesized, qPCR performed and the levels of various mRNA targets of the SMSMs were determined. In some instances, RNA was isolated, cDNA synthesized, qPCR performed and the levels of mRNA isoforms in the various cell samples were determined.
(§2) SMA type I patient cells (GM03813 (Coriell))
(§3) On the day of the experiment, a 96-well plate was seeded with the cell lines of interest. The cells were diluted with full growth media to a concentration of 2.0×10^5 cells/mL and 100 μL of cells were added to each well (20,000 cells per well). The cells were treated with a compound immediately after plating.
(§4) The compounds were then added to the cell plate using the HP compound dispenser. In the initial experiment, a top concentration of 10 μM and an 8 point 4-fold dilution scheme was used. The stock compounds were made at a concentration of 5 mM, and the DMSO concentration was set to 0.2%. DMSO was used to normalize all the compound-containing wells and the untreated cells.
(§5) The treated cells were incubated at 37° C. in a 5% CO2 incubator for the desired amount of time. Plates were placed in a plastic bag with a wet paper towel to prevent evaporation.
(§6) RNA was isolated using the Cells to CT kit (ThermoFisher, AM1728). The cells were washed once with 100 μL cold PBS. 50 μL of lysis buffer was added to each well/tube (49.5 μL lysis buffer+0.5 μL DNase I per well/tube). The lysis reaction was mixed and incubated at room temperature for 5 minutes. 5 μL of stop solution was added directly into each cell lysis reaction and mixed by pipetting up and down 5 times. The plates/tubes were incubated at room temperature for 2 minutes then placed on ice if the cDNA synthesis was to be performed immediately. Otherwise, the plates/tubes were stored at −80° C.
(§7) cDNA synthesis reactions were then performed. 40 μL RT master mix was added to PCR tubes or plate wells. 10 μL of RNA was added to each tube/well. The RT thermal cycler program was then run and tubes or plate wells were incubated at 37° C. for 1 hour, then at 95° C. for 5 minutes to deactivate the enzyme.
(§8) The qPCR was performed using a QuantStudio 6instrument (ThermoFisher) and the following cycling conditions and according to the tables below. All samples and standards were analyzed in triplicate. Cycle 1: 2 minutes at 50° C. Cycle 2: 10 minutes at 95′C. Cycle 3 (repeat 40 times): 15 seconds at 95° C., 1 minute at 60° C.
(§9) The determined SMN2^Δ7 and SMN2^FL quantities were then be used to determine the SMN2^Δ7:SMN2^FL ratio at the various compound concentrations. The PPIA quantities were used in the normalization to account of cell proliferation effects of the compounds.
(§10) An assay to measure the SMN2^FL mRNA and SMN2^Δ7 mRNA simultaneously in cell wells was performed. The RNA values were measured relative to DMSO control and also included a housekeeping gene, PPIA to ensure data was consistent. The mRNA values were measured after 24 hours of incubation with the SMSM compounds.
(§11) Additionally, to monitor expression levels of SMN2 splice variant using real-time quantitative PCR, SMA type I patient cells (GM03813 (Coriell)) were plated at 5,000 cells/well in 200 μl Dulbecco's modified Eagle's medium (DMEM) with GlutaMAX and 10% fetal bovine serum (FBS) (Life Technologies, Inc.) in 96-well plates, and incubated for 6 hours in a cell culture incubator. Cells were then treated with SMSMs at different concentrations (0.5% DMSO) in duplicate for 24 hours. After removal of the supernatant, cells were lysed in Cells-To-Ct lysis buffer (Life Technologies, Inc.) according to the manufacturer's recommendations. The mRNA levels of SMN2 FL, SMN2 A7 were quantified using Taqman-based RT-qPCR and SMN2-specific primers and probes. The SMN2 forward and reverse primers were each used at a final concentration of 0.4 μM. The SMN2 probe was used at a final concentration of 0.1 μM. […]

In a further assay the test system is SMN2^Δ7 mRNA. Described as above. The following applies: Homo sapiens, 24 hours. The protocol: as §1, §2, §3, §4, §5, §6, §7, §8, §9, §10, §11
The mark [2] stands for this setting: Homo sapiens, A673, 24 h, A-673 cells.
[3] abbreviates: Homo sapiens, A-375, 24 h, A-375 cells.
Where [4] appears, read: Homo sapiens, BXPC-3, 24 h, BxPC-3 cells.
[5] abbreviates: Homo sapiens, Z-138, 24 h, Z-138 cells.

pEC50, pIC50: −log10 of the molar value. Read-outs that look alike come from different tables or passages of the source. Where only a bound is given, the exact number is not on record here.

As for `CN(c1ccc(-c2ccc(-c3cn[nH]c3)cc2O)nn1)[C@@H]1C[C@H]2CCC[C@@H](C1)N2` [compound 160, 2-(6-(((1R,3s,5S)-9-azabicyclo[3.3.1]nonan-3-yl)(methyl)amino)pyridazin-3-yl)-5-(1H-pyrazol-4-yl)phenol], the pIC50 in assay [1] (24 h, MDA-MB-231-luc cells) was 7.00 to 7.96; in assay [1] (24 h, U-118 cells), 8.00 to 9.00; in assay [1] (setting [2]) it was 8.00 to 9.00; in assay [1] (setting [3]), more than 9.00; in assay [1] (setting [4]), 7.00 to 7.96; in assay [1] (setting [5]), 8.00 to 9.00. For the same compound, the pIC50 with SMN2^Δ7 mRNA was 9.15. Moreover, the 50% inhibitory concentration (IC50) in assay [1] was less than 10 nM. Further, in assay [1], the concentration for a half-maximal effect (EC50) is less than 10 nM. The same compound showed a pEC50 in the assay with SMN2^FL mRNA of 9.22.

In the case of `CN(c1ccc(-c2ccc(-c3cn[nH]c3)cc2O)nn1)[C@@H]1C[C@H]2CC[C@@H](C1)N2` [compound 138, 2-(6-(((1R,3s,5S)-8-azabicyclo[3.2.1]octan-3-yl)(methyl)amino)pyridazin-3-yl)-5-(1H-pyrazol-4-yl)phenol], the pIC50 in assay [1] (24 h, MDA-MB-231-luc cells) is 7.00 to 7.96; in assay [1] (24 h, U-118 cells) it was 7.00 to 7.96; in assay [1] (setting [2]), 7.00 to 7.96; in assay [1] (setting [3]), 8.00 to 9.00; in assay [1] (setting [4]), 6.70 to 7.00; in assay [1] (Homo sapiens, DU-145, 24 h, DU-145 cells), 7.00 to 7.96. Further, the pIC50 in assay [1] (Homo sapiens, Daoy, 24 h, Daoy cells) was 7.00 to 7.96; in assay [1] (Homo sapiens, G-401, 24 h, G-401 cells) it was 6.70 to 7.00; in assay [1] (Homo sapiens, SH-SY5Y, 24 h, SH-SY5Y cells), 7.00 to 7.96; in assay [1] (Homo sapiens, TT, 24 h, T.T cells), 7.00 to 7.96; in assay [1] (setting [5]), 7.00 to 7.96; with SMN2^Δ7 mRNA it was 9.00. Besides, the IC50 in assay [1] fell in the range of 10 to 100 nM. For the same compound, in assay [1], the concentration for a half-maximal effect (EC50) was in the range of 10 to 100 nM. For the same compound, the pEC50 in the assay with SMN2^FL mRNA was 9.00.

Turning to `CN(c1ccc(-c2ccc(-c3cn[nH]c3)cc2O)nn1)[C@H]1C[C@]2(C)CC[C@](C)(C1)N2` [compound 151, 2-(6-(((1R,3s,5S)-1,5-dimethyl-8-azabicyclo[3.2.1]octan-3-yl)(methyl)amino)pyridazin-3-yl)-5-(1H-pyrazol-4-yl)phenol], the IC50 in assay [1] was less than 10 nM. For the same compound, the pIC50 in assay [1] (setting [2]) was 8.00 to 9.00; in assay [1] (setting [3]), 8.00 to 9.00; in assay [1] (Homo sapiens, Hep3B, 24 h, Hep-3B cells), 6.70 to 7.00; in assay [1] (Homo sapiens, K562, 24 h, K-562 cells), 7.00 to 7.96; in assay [1] (Homo sapiens, MDA-MB-468, 24 h, MDA-MB-468 cells) it was 7.00 to 7.96; in assay [1] (Homo sapiens, NCI-H358, 24 h, NCI-H358 cells), 8.00 to 9.00. The pIC50 in assay [1] (Homo sapiens, PANC-1, 24 h, PANC-1 cells) is 6.70 to 7.00; in assay [1] (Homo sapiens, PC-3, 24 h, PC-3 cells), 7.00 to 7.96; in assay [1] (Homo sapiens, U-87 MG, 24 h, U-87MG cells), 7.00 to 7.96; with SMN2^Δ7 mRNA, 9.05. The EC50 in assay [1] is less than 10 nM. In the assay on SMN2^FL mRNA, the pEC50 was 9.15.

Usually IC50 stands for the concentration at which inhibition is half-maximal. In general, EC50 refers to the concentration that produces a half-maximal response. One may read the pEC50 as the EC50 on a negative log10 scale, so that one unit is a factor of ten.

The values are drawn from patent US11008572B2, “Methods and compositions for modulating splicing” (SKYHAWK THERAPEUTICS, INC., priority 2017, dated 2021).
